Data on five compounds can be found in ChEMBL document CHEMBL1156785, “Discovery of 4-[(2S)-2-{[4-(4-chlorophenoxy)phenoxy]methyl}-1-pyrrolidinyl]butanoic acid (DG-051) as a novel leukotriene A4 hydrolase inhibitor of leukotriene B4 biosynthesis” (J Med Chem, 2010).

Data set [1] deals with T1, Leukotriene A-4 hydrolase (Homo sapiens, UniProt P09960).
T1 sequence (P09960 whole entry): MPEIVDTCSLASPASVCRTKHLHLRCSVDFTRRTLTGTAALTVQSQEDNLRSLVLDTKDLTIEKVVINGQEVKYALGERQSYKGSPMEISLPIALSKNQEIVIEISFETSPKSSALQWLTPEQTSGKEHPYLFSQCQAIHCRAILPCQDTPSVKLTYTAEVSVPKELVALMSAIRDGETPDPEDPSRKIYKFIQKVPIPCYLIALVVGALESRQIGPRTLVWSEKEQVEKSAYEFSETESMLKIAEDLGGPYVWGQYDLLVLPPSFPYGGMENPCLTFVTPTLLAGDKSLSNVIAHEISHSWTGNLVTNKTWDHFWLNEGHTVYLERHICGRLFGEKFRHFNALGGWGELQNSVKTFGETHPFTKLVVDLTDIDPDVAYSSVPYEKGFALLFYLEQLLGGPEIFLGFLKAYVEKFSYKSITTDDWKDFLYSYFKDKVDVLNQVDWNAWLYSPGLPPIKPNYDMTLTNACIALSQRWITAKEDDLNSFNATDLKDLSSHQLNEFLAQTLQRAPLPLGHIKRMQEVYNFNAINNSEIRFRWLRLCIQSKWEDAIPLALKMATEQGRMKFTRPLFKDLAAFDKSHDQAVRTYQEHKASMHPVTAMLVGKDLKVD
Description: Inhibition of human recombinant LTA4H hydrolysis assessed as inhibition of LTB4 formation by LC-MS/MS

Data set [2] is described as follows: AUC (0 to infinity) in mouse at 10 mg/kg, po. Type of data set: ADME, organism-based. More on the design: time infinity, dose 10 mg/kg, route oral. The settings on record: plasma.
Data set [3] can be described thus: Volume of distribution in mouse at 10 mg/kg, iv. The format is ADME, organism-based. Further details: dose 10 mg/kg, route intravenous. The following applies: in vivo.
The nature of data set [4]: Clearance in mouse at 10 mg/kg, iv. The format is ADME, organism-based. Further details: dose 10 mg/kg, route intravenous. The following applies: in vivo.
Data set [5] in a line: Oral bioavailability in mouse at 10 mg/kg. Type of data set: ADME, organism-based. The settings on record: in vivo.
The target of data set [6] is T1, Leukotriene A-4 hydrolase. This is another data set of the same source.
Description: Inhibition of human LTA4H hydrolysis assessed as inhibition of Ca2+ ionophore-stimulated LTB4 formation in human whole blood by ELISA
Data set [7] in a line: Cmax in mouse at 10 mg/kg, po. The format is ADME, organism-based. More on the design: dose 10 mg/kg, route oral. The following applies: in vivo.
Data set [8] in a line: Half life in mouse at 10 mg/kg, po. Type of data set: ADME, organism-based. Further details: dose 10 mg/kg, route oral. The following applies: in vivo.
Data set [9] in a line: Metabolic stability in rat liver microsomes assessed as compound remaining after 30 mins. The format is ADME, Microsome. The following applies: read-out: Stability. In general terms: Liver microsomes are vesicles of endoplasmic reticulum, rich in cytochrome P450 enzymes.
In data set [10] the target is Aminopeptidase N (Homo sapiens) (UniProt P15144). The experiment in a line: Inhibition of APN at 10 uM.
Data set [11] concerns the target Endoplasmic reticulum aminopeptidase 1 (Homo sapiens) (UniProt Q9NZ08). The experiment in a line: Inhibition of PILS at 10 uM.
A short description of data set [12]: Half life in monkey at 10 mg/kg, po. Type of data set: ADME, organism-based, Macaca mulatta. More on the design: dose 10 mg/kg, route oral. The following applies: rhesus monkey, in vivo.
Data set [13] is described as follows: Oral bioavailability in Sprague-Dawley rat at 10 mg/kg. The format is ADME, organism-based. The settings on record: in vivo.
Data set [14] in a line: AUC (0 to infinity) in Sprague-Dawley rat at 10 mg/kg, po. The format is ADME, organism-based. Further details: time infinity, dose 10 mg/kg, route oral. The following applies: plasma.
The target of another data set is CYP3A4 (Homo sapiens, UniProt P08684). The experiment in a line: Inhibition of human CYP3A4 at 10 uM. The format is ADME.
Data set [15] can be described thus: Half life in dog at 10 mg/kg, po. The format is ADME, organism-based, Canis lupus familiaris. The settings on record: in vivo. Further details: dose 10 mg/kg, route oral.
A short description of data set [16]: Volume of distribution in dog at 10 mg/kg, iv. Type of data set: ADME, organism-based, Canis lupus familiaris. More on the design: dose 10 mg/kg, route intravenous. The following applies: in vivo.
The nature of data set [17]: AUC (0 to infinity) in dog at 10 mg/kg, po. The format is ADME, organism-based, Canis lupus familiaris. More on the design: time infinity, dose 10 mg/kg, route oral. The following applies: plasma.
A further data set has as its target T2, CYP1A2 (Homo sapiens, UniProt P05177).
T2 sequence (P05177 whole entry): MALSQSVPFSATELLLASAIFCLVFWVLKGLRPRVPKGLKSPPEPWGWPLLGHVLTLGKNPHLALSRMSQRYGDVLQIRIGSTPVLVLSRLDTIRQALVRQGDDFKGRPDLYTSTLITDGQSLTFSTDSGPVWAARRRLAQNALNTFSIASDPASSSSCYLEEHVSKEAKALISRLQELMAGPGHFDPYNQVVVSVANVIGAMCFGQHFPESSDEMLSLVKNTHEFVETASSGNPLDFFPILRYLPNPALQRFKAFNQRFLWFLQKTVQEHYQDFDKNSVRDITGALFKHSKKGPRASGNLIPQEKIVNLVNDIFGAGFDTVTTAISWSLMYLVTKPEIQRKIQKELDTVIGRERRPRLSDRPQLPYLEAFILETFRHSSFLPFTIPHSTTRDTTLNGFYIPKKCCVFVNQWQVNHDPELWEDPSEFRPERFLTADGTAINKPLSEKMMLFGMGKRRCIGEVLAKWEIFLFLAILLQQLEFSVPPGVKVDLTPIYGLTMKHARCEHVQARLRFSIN
The experiment in a line: Inhibition of human CYP1A2 at 10 uM. Type of data set: ADME.

The target of data set [18] is Voltage-gated inwardly rectifying potassium channel KCNH2 (Homo sapiens, UniProt Q12809). The experiment in a line: Inhibition of human ERG channel.
A short description of data set [19]: Half life in Sprague-Dawley rat at 10 mg/kg, po. Type of data set: ADME, organism-based. More on the design: dose 10 mg/kg, route oral. The following applies: in vivo.
A further data set has as its target Cytochrome P450 2D6 (Homo sapiens, UniProt P10635). The experiment in a line: Inhibition of CYP2D6. The format is ADME.
The nature of data set [20]: Volume of distribution in Sprague-Dawley rat at 10 mg/kg, iv. More on the design: dose 10 mg/kg, route intravenous. Type of data set: ADME, organism-based. The following applies: in vivo.
Data set [21] can be described thus: Clearance in Sprague-Dawley rat at 10 mg/kg, iv. The format is ADME, organism-based. Further details: dose 10 mg/kg, route intravenous. The settings on record: in vivo.
A short description of data set [22]: Cmax in dog at 10 mg/kg, po. The format is ADME, organism-based, Canis lupus familiaris. The settings on record: in vivo. Further details: dose 10 mg/kg, route oral.
In another data set the target is CYP2C19 (Homo sapiens, UniProt P33261). The experiment in a line: Inhibition of human CYP2C19 at 10 uM. Type of data set: ADME.
A further data set concerns the target CYP2C9 (Homo sapiens, UniProt P11712). The experiment in a line: Inhibition of human CYP2C9 at 10 uM. Type of data set: ADME.
A short description of data set [23]: Clearance in monkey at 10 mg/kg, iv. Type of data set: ADME, organism-based, Macaca mulatta. Further details: dose 10 mg/kg, route intravenous. The settings on record: rhesus monkey, in vivo.
For data set [24], the target named is Glutamyl aminopeptidase (Homo sapiens) (UniProt Q07075). The experiment in a line: Inhibition of APA at 10 uM.
In data set [25] the target is Endoplasmic reticulum aminopeptidase 2 (Homo sapiens) (UniProt Q6P179). The experiment in a line: Inhibition of LRAP at 10 uM.
Data set [26] in a line: Clearance in dog at 10 mg/kg, iv. The format is ADME, organism-based, Canis lupus familiaris. More on the design: dose 10 mg/kg, route intravenous. The settings on record: in vivo.
A short description of data set [27]: Aqueous solubility at pH 6.18. Type of data set: physicochemical. The following applies: buffer.
Data set [28] is described as follows: Cmax in monkey at 10 mg/kg, po. Type of data set: ADME, organism-based, Macaca mulatta. More on the design: dose 10 mg/kg, route oral. The following applies: rhesus monkey, in vivo.
For a further data set, the system named is Rhesus monkey. The experiment in a line: Oral bioavailability in monkey at 10 mg/kg. The format is ADME, organism-based, Macaca mulatta. The settings on record: in vivo.
Data set [29] can be described thus: Cmax in Sprague-Dawley rat at 10 mg/kg, po. The format is ADME, organism-based. Further details: dose 10 mg/kg, route oral. The following applies: in vivo.
The nature of data set [30]: Volume of distribution in monkey at 10 mg/kg, iv. Type of data set: ADME, organism-based, Macaca mulatta. Further details: dose 10 mg/kg, route intravenous. The following applies: rhesus monkey, in vivo.
A short description of data set [31]: AUC (0 to infinity) in monkey at 10 mg/kg, po. The format is ADME, organism-based, Macaca mulatta. Further details: time infinity, dose 10 mg/kg, route oral. The following applies: rhesus monkey, plasma.
Data set [32] has as its target Xaa-Pro aminopeptidase 1 (Homo sapiens) (UniProt Q9NQW7). The experiment in a line: Inhibition of APP1 at 10 uM.
A short description of data set [33]: Cmax in Sprague-Dawley rat at 10 mg/kg, iv. The format is ADME, organism-based. More on the design: dose 10 mg/kg, route intravenous. The settings on record: in vivo.
The next data set has as its system Rattus norvegicus. The experiment in a line: AUC (0 to infinity) in Sprague-Dawley rat at 10 mg/kg, iv. The format is ADME, organism-based, Plasma. More on the design: time infinity, dose 10 mg/kg, route intravenous. The settings on record: in vivo.

Chain of CYP3A4 (P08684 whole entry): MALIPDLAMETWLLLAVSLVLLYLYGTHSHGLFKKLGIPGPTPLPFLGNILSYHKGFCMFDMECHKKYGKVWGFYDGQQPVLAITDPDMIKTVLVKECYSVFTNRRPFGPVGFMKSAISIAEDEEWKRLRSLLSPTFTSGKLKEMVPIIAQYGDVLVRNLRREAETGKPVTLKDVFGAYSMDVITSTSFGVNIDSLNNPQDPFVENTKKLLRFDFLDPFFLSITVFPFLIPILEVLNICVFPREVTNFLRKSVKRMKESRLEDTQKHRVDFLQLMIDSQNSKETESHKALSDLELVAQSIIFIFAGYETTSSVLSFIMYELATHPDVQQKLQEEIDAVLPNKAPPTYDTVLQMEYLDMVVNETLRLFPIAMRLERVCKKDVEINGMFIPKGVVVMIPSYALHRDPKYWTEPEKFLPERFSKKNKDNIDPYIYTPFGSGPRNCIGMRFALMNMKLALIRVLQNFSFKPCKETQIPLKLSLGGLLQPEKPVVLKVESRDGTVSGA
Chain of Glutamyl aminopeptidase (Homo sapiens) (Q07075 whole entry): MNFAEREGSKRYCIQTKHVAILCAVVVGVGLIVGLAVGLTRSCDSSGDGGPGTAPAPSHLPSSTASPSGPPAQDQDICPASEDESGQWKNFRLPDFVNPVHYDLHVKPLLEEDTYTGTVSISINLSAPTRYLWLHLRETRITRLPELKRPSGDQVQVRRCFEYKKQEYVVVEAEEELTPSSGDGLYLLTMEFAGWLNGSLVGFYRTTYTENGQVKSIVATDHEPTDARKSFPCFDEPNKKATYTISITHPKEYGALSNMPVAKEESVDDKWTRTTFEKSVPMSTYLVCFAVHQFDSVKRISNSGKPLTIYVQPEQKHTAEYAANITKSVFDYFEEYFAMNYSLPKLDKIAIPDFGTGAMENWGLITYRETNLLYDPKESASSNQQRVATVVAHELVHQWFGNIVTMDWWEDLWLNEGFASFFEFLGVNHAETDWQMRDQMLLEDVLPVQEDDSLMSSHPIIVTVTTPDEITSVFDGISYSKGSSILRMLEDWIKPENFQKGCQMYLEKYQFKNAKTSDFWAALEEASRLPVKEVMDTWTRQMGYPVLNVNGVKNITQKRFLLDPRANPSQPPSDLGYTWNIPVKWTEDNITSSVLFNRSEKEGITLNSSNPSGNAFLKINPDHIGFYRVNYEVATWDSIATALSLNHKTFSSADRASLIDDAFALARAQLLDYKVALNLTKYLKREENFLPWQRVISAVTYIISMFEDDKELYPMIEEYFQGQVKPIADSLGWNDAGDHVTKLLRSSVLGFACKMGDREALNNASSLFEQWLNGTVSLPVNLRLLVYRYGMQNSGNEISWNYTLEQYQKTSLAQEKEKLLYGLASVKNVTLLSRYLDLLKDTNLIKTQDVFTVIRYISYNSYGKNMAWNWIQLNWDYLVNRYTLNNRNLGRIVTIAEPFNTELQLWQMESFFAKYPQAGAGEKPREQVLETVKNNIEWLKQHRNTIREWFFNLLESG
Chain of Voltage-gated inwardly rectifying potassium channel KCNH2 (Q12809 whole entry): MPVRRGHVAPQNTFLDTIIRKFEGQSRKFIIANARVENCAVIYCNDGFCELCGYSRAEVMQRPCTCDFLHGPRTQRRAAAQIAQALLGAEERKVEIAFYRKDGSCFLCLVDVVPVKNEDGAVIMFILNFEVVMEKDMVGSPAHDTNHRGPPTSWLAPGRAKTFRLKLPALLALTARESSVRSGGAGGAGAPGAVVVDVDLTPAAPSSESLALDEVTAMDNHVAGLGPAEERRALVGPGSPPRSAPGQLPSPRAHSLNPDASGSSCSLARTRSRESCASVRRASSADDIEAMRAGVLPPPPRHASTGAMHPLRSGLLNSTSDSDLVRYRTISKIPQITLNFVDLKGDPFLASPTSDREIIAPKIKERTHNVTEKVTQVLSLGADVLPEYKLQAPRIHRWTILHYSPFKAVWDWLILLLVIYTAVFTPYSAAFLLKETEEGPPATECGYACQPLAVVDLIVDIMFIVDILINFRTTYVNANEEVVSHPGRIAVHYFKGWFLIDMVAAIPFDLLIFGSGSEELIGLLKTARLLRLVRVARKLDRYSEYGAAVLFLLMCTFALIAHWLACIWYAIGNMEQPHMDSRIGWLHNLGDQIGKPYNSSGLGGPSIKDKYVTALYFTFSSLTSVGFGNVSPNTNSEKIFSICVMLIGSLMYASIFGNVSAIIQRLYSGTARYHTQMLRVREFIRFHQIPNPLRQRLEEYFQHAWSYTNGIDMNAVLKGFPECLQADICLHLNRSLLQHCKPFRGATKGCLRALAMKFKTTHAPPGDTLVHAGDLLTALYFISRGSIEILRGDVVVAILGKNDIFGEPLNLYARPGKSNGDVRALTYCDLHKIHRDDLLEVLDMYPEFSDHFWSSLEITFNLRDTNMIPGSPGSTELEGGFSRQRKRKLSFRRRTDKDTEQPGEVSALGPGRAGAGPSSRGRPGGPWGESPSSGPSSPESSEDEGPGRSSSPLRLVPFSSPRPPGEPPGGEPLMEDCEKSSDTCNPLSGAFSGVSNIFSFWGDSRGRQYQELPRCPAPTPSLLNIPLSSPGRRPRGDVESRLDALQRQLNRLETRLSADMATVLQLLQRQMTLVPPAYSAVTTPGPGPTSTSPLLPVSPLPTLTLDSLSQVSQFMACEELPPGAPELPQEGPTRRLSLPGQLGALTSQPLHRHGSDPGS
Chain of Aminopeptidase N (Homo sapiens) (P15144 whole entry): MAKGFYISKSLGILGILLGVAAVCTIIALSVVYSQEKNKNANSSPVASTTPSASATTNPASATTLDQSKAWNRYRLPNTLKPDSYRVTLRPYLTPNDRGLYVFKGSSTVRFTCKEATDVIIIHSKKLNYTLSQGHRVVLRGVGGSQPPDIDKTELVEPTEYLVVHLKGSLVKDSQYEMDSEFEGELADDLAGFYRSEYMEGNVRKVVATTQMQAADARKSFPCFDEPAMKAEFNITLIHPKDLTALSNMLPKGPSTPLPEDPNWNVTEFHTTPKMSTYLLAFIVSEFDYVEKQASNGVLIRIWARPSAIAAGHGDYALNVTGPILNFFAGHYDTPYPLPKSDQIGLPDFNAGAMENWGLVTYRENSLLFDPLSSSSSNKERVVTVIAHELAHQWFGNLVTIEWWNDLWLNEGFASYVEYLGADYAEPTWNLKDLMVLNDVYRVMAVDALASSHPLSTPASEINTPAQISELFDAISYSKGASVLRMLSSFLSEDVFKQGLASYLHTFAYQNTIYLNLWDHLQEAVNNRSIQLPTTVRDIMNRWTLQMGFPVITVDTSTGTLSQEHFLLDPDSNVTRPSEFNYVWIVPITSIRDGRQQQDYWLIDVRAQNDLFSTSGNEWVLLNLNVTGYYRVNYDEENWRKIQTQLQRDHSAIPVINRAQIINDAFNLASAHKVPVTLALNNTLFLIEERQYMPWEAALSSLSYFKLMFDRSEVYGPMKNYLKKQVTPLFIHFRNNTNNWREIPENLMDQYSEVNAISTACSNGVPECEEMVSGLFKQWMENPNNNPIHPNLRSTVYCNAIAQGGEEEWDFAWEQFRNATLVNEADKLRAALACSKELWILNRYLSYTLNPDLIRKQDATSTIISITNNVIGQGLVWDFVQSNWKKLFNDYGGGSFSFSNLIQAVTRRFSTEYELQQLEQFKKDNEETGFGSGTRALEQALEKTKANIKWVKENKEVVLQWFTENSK
Chain of CYP2C9 (P11712 whole entry): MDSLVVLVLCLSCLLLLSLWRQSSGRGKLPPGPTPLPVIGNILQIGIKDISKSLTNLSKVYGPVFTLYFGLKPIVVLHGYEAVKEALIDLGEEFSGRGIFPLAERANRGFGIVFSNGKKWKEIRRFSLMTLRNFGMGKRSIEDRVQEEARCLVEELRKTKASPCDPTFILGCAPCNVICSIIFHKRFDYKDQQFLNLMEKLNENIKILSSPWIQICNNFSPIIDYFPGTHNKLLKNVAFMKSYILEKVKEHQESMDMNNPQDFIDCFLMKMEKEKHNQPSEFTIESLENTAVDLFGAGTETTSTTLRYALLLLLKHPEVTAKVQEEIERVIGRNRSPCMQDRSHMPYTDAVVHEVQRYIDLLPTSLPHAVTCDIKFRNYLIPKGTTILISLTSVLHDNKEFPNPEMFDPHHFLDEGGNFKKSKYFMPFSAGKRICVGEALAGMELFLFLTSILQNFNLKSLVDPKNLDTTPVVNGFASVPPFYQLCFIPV
Chain of Xaa-Pro aminopeptidase 1 (Homo sapiens) (Q9NQW7 whole entry, looked up): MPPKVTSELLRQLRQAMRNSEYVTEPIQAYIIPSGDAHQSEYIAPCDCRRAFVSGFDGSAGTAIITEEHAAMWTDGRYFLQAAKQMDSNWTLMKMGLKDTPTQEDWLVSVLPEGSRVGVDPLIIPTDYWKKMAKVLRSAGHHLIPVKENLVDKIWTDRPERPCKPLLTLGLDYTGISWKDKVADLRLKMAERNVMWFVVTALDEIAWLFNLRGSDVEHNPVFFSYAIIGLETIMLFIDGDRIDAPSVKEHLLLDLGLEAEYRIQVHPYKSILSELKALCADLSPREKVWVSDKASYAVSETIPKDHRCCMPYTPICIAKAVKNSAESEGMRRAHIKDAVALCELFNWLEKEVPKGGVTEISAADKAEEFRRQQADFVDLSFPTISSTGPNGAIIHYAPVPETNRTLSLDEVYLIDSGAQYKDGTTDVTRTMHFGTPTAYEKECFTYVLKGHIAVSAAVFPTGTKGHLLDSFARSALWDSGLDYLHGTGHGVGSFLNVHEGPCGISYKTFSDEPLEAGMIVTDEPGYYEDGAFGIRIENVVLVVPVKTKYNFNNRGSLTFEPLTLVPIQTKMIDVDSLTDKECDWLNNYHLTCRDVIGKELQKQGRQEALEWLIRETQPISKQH

For orientation: IC50 means the point on the concentration scale where inhibition reaches its midpoint. Take `Ic1ccc(Oc2ccc(N3CCNCC3)cc2)cc1`: in [1], half-maximal inhibition (IC50) was put at 340 nM.

For orientation: AUC(0-inf) means total exposure, with the tail of the curve extrapolated. The Vd is a proportionality between amount in the body and measured concentration, not a real space. A word on the clearance: it is the rate of elimination divided by the concentration. As a reminder, the bioavailability is dose-corrected exposure relative to a reference, in per cent. As usually defined, the Cmax is the peak of the concentration-time curve. By half-life is commonly meant the time in which the quantity being followed falls by half. `Clc1ccc(Oc2ccc(OC[C@H]3CCCN3)cc2)cc1` showed an AUC(0-inf) in [2] of 2360 ng·h/mL. The same compound showed a volume of distribution (Vd) in data set [3] of 6.32 L/kg. In addition, the clearance in data set [4] is 61 mL/min/kg. This compound came in with a bioavailability in data set [5] of 85%. Moreover, the IC50 is 30 nM in data set [1] and 533 nM in [6]. In [7], this compound returned a maximum concentration (Cmax) of 1.02 µM. Also, the half-life in data set [8] is 3.59 h. Further, the remaining at 0.5 h in data set [9] came to 86.6%.

`c1ccc(Cc2ccc(OCCc3ccncc3)cc2)cc1` came in with an IC50 in data set [1] of 8700 nM.

The inhibition is the percentage by which the read-out fell short of the control. The term solubility denotes the concentration that dissolves in the medium under given conditions. For the compound `O=C(O)CCCN1CCC[C@H]1COc1ccc(Oc2ccc(Cl)cc2)cc1`, the inhibition in data set [10], in [11], in data set [24], in [25] and in data set [32] was more than 50% throughout. Moreover, the half-life in data set [12] is 5.54 h; in data set [15], 4.02 h; in [19] it was 2.57 h. For the same compound, in data set [13], the bioavailability stood at 87%. The AUC(0-inf) in data set [14] stood at 13000 ng·h/mL; in data set [17], 56000 ng·h/mL; in [31] it was 52400 ng·h/mL. Also, the inhibition at 10 µM on CYP3A4, on CYP1A2, on CYP2C19 and at CYP2C9 was less than 50% throughout. Also, the distribution volume (Vd) was determined as 1.56 L/kg in data set [16], 2.35 L/kg in data set [20] and 2.07 L/kg in [30]. The figures for the “inhibition (INH)” value (in data set [18]; at Cytochrome P450 2D6) were more than 50% and less than 50%, respectively. The clearance came out at 11 mL/min/kg in data set [21], 6 mL/min/kg in data set [23] and 7.6 mL/min/kg in data set [26]. Further, the Cmax in [22] came out at 19.3 µM; in data set [28] it was 18.9 µM; in data set [29] it was 4.8 µM. For the same compound, in [27], the solubility is more than 30 mg/mL. In the data set with Rhesus monkey, this compound registered an F of 186%. For the same compound, the remaining at 0.5 h in [9] was determined as 95.2%.

As usually defined, the AUC is the area under the concentration-time curve, a measure of exposure. Take `c1ccc(Cc2ccc(OC[C@H]3CCCN3)cc2)cc1`: the Cmax in data set [33] was determined as 1.46 µM. The same compound showed a half-life in [19] of 0.67 h. The same compound gave a Vd in data set [20] of 6.12 L/kg. This compound also came in with an exposure (AUC) in the data set with Rattus norvegicus of 471 ng·h/mL. Moreover, the remaining at 0.5 h in [9] amounted to 10.5%.
